{
  "source": "patent US11512085B2",
  "about": "“Heteroaryl compound having drug activity” (SHANGHAI DUDE MEDICAL TECHNOLOGY CO., LTD, priority 2017, dated 2022)",
  "key": {"[1]": {"test_system": "OCI-LY19", "test": "In vitro tumor cell proliferation (CellTiter-Glo), OCI-LY19", "format": "cell-based", "details": "Homo sapiens, OCI-LY19, 72 h; read-out: Growth IC50", "experimental": "(§1) Biological Embodiment 8: Study on Effects of Active Compounds for Inhibiting In Vitro Tumor Cell Proliferation\n(§2) Promega CellTiter-Glo cell activity detection kit by luminescence (Promega-G7573).\n(§3) Tumor cell lines were cultured in a 5% of CO2 incubator at 37° C. according to respective culture conditions; and periodic passage was performed, and cells positioned in a logarithmic phase were taken for planking.\n(§4) 3) 90 μL of cell suspension was added into each well of the culture plate, and a culture solution containing no cell was added into blank control;\n(§5) 4) the culture plate was cultured overnight in the 5% of CO2 incubator having relative humidity of 100% at 37° C.\n(§6) Preparation of a 400× compound storage plate: the compound was diluted from the maximum concentration gradient to the lowest concentration with DMSO. […]\n(§7) The following steps were performed according to the specification of the Promega CellTiter-Glo cell activity detection kit by luminescence (Promega-G7573). […]\n(§8) 9) the luminescence signal was detected on the 2104 EnVision plate reader."}, "[2]": {"test_system": "B cells", "test": "B cell activation (anti-human IgM, CD69 staining)", "format": "cell-based", "details": "concentration of 0.1 uM", "experimental": "Biological Embodiment 3: Influences of In-Vitro Test Compounds on PBMC/B/T Cell Activation\n4.3 Isolation of B Cells and T Cells\nCell Isolation Programs Shall Refer to […] Kits\n4.4.1 Activation of B Cells\nThe co-culture system is as follows:\nAntibody Staining and Data Analysis\nAntibody staining was performed within 24 hours […] according to a standard method.\n4.5.1 Activation of PBMC and B Cells\nLIVE/DEAD Fixable Violet Dead Cell Stain Kit"}, "[3]": {"test_system": "Jeko-1", "test": "In vitro tumor cell proliferation (CellTiter-Glo), Jeko-1", "format": "cell-based", "details": "Homo sapiens, JeKo-1, 72 h; read-out: Growth IC50", "experimental": "as §1, §2, §3, §4, §5, §6, §7, §8"}, "[4]": {"test_system": "Ramos", "test": "In vitro tumor cell proliferation (CellTiter-Glo), Ramos", "format": "cell-based", "details": "Homo sapiens, 72 h, read-out: Growth IC50", "experimental": "as §1, §2, §3, §4, §5, §6, §7, §8"}, "[5]": {"target": "Lck (Homo sapiens, UniProt P06239)", "sequence (P06239 whole entry)": "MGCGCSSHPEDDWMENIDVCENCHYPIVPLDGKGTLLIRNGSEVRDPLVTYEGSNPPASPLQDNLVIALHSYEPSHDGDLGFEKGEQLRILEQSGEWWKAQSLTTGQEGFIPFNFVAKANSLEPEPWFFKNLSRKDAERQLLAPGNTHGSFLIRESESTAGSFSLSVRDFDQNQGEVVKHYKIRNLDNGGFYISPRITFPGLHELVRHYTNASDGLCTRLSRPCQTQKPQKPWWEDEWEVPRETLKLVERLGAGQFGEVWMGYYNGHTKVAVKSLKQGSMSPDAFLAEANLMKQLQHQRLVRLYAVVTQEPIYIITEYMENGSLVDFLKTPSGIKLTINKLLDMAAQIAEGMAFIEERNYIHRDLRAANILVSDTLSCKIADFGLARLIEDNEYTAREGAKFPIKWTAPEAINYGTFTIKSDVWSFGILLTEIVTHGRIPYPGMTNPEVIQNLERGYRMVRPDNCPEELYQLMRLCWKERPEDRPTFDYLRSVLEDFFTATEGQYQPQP", "test": "Btk selectivity over Lck (same kinase method, Btk replaced)", "format": "biochemical", "details": "ratio of IC50 values", "experimental": "(§9) Other kinases (e.g., inhibitory activity of Lck and LynA is determined by replacing the Btk with various kinases and performing operations the same as that in the above method)."}, "[6]": {"test_system": "Mino", "test": "In vitro tumor cell proliferation (CellTiter-Glo), Mino", "format": "cell-based", "details": "Homo sapiens, 72 h, read-out: Growth IC50", "experimental": "as §1, §2, §3, §4, §5, §6, §7, §8"}, "[7]": {"target": "LynA (Homo sapiens, UniProt P07948)", "sequence (P07948 whole entry)": "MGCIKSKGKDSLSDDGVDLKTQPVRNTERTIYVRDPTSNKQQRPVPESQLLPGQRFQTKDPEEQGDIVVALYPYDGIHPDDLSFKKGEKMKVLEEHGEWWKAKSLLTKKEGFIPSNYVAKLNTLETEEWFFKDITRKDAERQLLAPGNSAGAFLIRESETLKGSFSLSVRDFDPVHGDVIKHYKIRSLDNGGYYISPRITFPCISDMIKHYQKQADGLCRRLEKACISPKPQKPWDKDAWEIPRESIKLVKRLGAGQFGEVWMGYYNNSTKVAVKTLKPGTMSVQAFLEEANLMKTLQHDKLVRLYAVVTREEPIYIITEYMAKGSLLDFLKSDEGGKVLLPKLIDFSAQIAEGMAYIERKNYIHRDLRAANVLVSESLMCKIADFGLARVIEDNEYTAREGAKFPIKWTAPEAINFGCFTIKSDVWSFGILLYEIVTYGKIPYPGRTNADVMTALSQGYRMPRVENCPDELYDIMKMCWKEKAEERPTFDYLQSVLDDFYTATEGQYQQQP", "test": "Btk selectivity over LynA (same kinase method, Btk replaced)", "format": "biochemical", "details": "ratio of IC50 values", "experimental": "as §9"}, "[8]": {"test_system": "DOHH-2", "test": "In vitro tumor cell proliferation (CellTiter-Glo), DOHH-2", "format": "cell-based", "details": "Homo sapiens, DOHH-2, 72 h; read-out: Growth IC50", "experimental": "as §1, §2, §3, §4, §5, §6, §7, §8"}, "[9]": {"test_system": "Raji", "test": "In vitro tumor cell proliferation (CellTiter-Glo), Raji", "format": "cell-based", "details": "Homo sapiens, 72 h, read-out: Growth IC50", "experimental": "as §1, §2, §3, §4, §5, §6, §7, §8"}, "[10]": {"test_system": "WSU-NHL", "test": "In vitro tumor cell proliferation (CellTiter-Glo), WSU-NHL", "format": "cell-based", "details": "Homo sapiens, 72 h, read-out: Growth IC50", "experimental": "as §1, §2, §3, §4, §5, §6, §7, §8"}, "[11]": {"test_system": "p-Erk/t-Erk", "test": "Western blotting of p-Erk/t-Erk in anti-IgG stimulated DOHH2 cells", "format": "cell-based", "details": "DOHH2 cells, 5, 100, 2000 nM, 1 h, anti-IgG stimulation", "experimental": "Biological Embodiment 4: Analysis of Influences of Test Compounds on p-Btk/t-Btk, p-PLCγ/t-PLCγ and p-Erk/t-Erk Expression Levels of DOHH2 Cells by Virtue of Western Blotting\n1) DOHH2 cells on a logarithmic phase were collected;\n2) a cell concentration was adjusted to a needed concentration;\n3) 2 ml of cell suspension was added into a 6-well plate for performing culture, three different concentrations, that is, 5 nM, 100 nM and 2000 nM, of test samples were respectively set, and each concentration was repeated once;\n4) test samples were added into plate wells, and DMSO served as control, wherein a final concentration of the DMSO was 0.1%;\n5) culture was performed for 1 h; and […]\n6. protein extraction and quantification […]\n5) a protein concentration was determined by using Pierce™ BCA Protein Assay Kit; and\n6) according to BCA protein quantification results, all samples were diluted to the same final concentration by adding 4×LDS sample buffer and 10× sample reducing agent into the RIPA buffer solution, and the solution was heated at 100° C. for 10 min. […]\n10) chemiluminiscence was detected by Tanon 5200 multi.\n7. Quantification of strip intensity\nIntensity of each strip was quantified by using Image quant densitometry software. […]"}},
  "data": [
    {"compound": "C=CC(=O)NN1CCCC(n2nc(-c3ccc(Oc4ccccc4)cc3)c3c(N)ncnc32)C1", "note": "(centres unmarked) [Embodiment 6, N-(3-(4-amino-3-(4-phenoxyphenyl)-1H-pyrazolo[3,4-D]pyrimidine-1-yl)-1-piperidyl)-acrylamide]", "values": [
      {"measurement": "IC50", "setting": "[1]", "result": 6.79, "unit": "µM"},
      {"measurement": "B cell activity inhibition effect", "setting": "[2]", "result": "obvious B cell activity inhibition effects"},
      {"measurement": "IC50", "setting": "[3]", "result": "> 10", "unit": "µM"},
      {"measurement": "IC50", "setting": "[4]", "result": 1.4, "unit": "µM"},
      {"measurement": "Lck[IC50]/Btk[IC50]", "setting": "[5]", "result": 285},
      {"measurement": "IC50", "setting": "[6]", "result": 2.17, "unit": "µM"},
      {"measurement": "LynA[IC50]/Btk[IC50]", "setting": "[7]", "result": 137},
      {"measurement": "IC50", "setting": "[8]", "result": "< 0.003", "unit": "µM"},
      {"measurement": "IC50", "setting": "[9]", "result": "> 10", "unit": "µM"},
      {"measurement": "IC50", "setting": "[10]", "result": 1.02, "unit": "µM"},
      {"measurement": "relative level of p-Erk/t-Erk", "setting": "[11]", "result": "obviously decreased"}
    ]}
  ]
}
